Results on 24 compounds are retold here after patent US9512117B2 (priority 2010, dated 2016).

“And” between values parts separate entries of the source, which are not always exact repeats. Equal entries are not always repeated.

Series [1] can be described thus: logP by HPLC on reversed-phase columns (C 18), EEC directive 79/831 Annex V.A8. The class given is physicochemical. The following applies: LC-MS; for Log P [a] / chromatographic logP: acidic range, pH 2.7, 0.1% aqueous formic acid and acetonitrile; for Log P [b]: neutral range, pH 7.8, 0.001 molar aqueous ammonium hydrogencarbonate and acetonitrile; for chromatographic logP: reversed-phase HPLC column (C18), read-out: Log P [a]. How it is done: The logP values were measured according to EEC directive 79/831 Annex V.A8 by HPLC (High Performance Liquid Chromatography) on reversed-phase columns (C 18), using the methods below:
^[a] The LC-MS determination in the acidic range is effected at pH 2.7 with 0.1% aqueous formic acid and acetonitrile (contains 0.1% formic acid) as eluents; linear gradient from 10% acetonitrile to 95% acetonitrile.
^[b] The LC-MS determination in the neutral range is effected at pH 7.8 using 0.001 molar aqueous ammonium hydrogencarbonate solution and acetonitrile as eluents; linear gradient from 10% acetonitrile to 95% acetonitrile.
The calibration is effected with unbranched alkan-2-ones (having 3 to 16 carbon atoms) with known logP values (logP values determined on the basis of the retention times by linear interpolation between two successive alkanones).

The test system of a further series is Phytophthora infestans. It counts as in vivo. The following applies: young tomato plants, protective spray, 100 ppm active ingredient, evaluation 7 days after inoculation; 0% = control, 100% = no infection.
Another series has as its system Plasmopara viticola. Nature of the series: Plasmopara test (grapevine) / protective. It counts as in vivo. The note with it: young grapevine plants, protective spray, 10 ppm active ingredient, evaluation 6 days after inoculation; 0% = control, 100% = no infection. As for the experimental part: Plasmopara Test (Grapevine)/Protective
• Solvent: 24.5 parts by weight of acetone • 24.5 parts by weight of dimethylacetamide • Emulsifier: 1 part by weight of alkylaryl polyglycol ether
To produce a suitable active ingredient formulation, 1 part by weight of active ingredient is mixed with the stated amounts of solvent and emulsifier, and the concentrate is diluted with water to the desired concentration.
To test for protective efficacy, young plants are sprayed with the active ingredient formulation at the stated application rate. After the spray coating has dried on, the plants are inoculated with an aqueous spore suspension of Plasmopara viticola and then remain in an incubation cabin at approx. 20° C. and 100% relative air humidity for 1 day. Subsequently, the plants are placed in a greenhouse at approx. 21° C. and approx. 90% air humidity for 4 days. The plants are then moistened and placed in an incubation cabin for 1 day.
Evaluation follows 6 days after the inoculation. 0% means an efficacy which corresponds to that of the control, whereas an efficacy of 100% means that no infection is observed.
In this test, the following inventive compounds show, at an active ingredient concentration of 10 ppm, an efficacy of 70% or more: […]

As to `C#CCOc1cccc(Cl)c1C1CC(c2csc(C3CCN(C(=O)Nc4cc(C)ccc4C)CC3)n2)=NO1` (racemic) [Ex. 38], the “Log P [a]” value in series [1] is 3.68[a];. The “Log P [b]” value in series [1] was 3.57[b]. Also, the Eff. % is recorded as 94% in the series with Phytophthora infestans and 100% in the series on Plasmopara viticola.

On to `C=CCOc1cccc(F)c1C1CC(c2csc(C3CCN(C(=O)Cn4nc(C(F)(F)F)cc4C)CC3)n2)=NO1` (racemic) [Ex. 51], for which, in series [1], the “Log P [a]” value was 3.7[a]; and the “Log P [b]” value is 3.61[b]. Moreover, in the series on Phytophthora infestans, the Eff. % was 85%. The compound also displayed an Eff. % in the series on Plasmopara viticola of 100%.

As to `Cc1cc(C(F)(F)F)nn1CC(=O)N1CCC(c2nc(C3=NOC(c4ccccc4C=O)C3)cs2)CC1` (stereo not drawn) [Ex. 7, 2-{3-[2-(1-{[5-Methyl-3-(trifluoromethyl)-1H-pyrazol-1-yl]acetyl}piperidin-4-yl)-1,3-thiazol-4-yl]-4,5-dihydro-1,2-oxazol-5-yl}benzaldehyde], the chromatographic logP in series [1] was 3.12. In addition, the Eff. % in the series on Phytophthora infestans and with Plasmopara viticola was 100% in each case.

Turning to `COCCOc1ccccc1C1CC(c2csc(C3CCN(C(=O)Cn4nc(C(F)(F)F)cc4C)CC3)n2)=NO1` (racemic) [Ex. 55], in series [1], the “Log P [a]” value is 3.27[a]; and the “Log P [b]” value was 3.25[b]. In the series on Phytophthora infestans, this compound returned an Eff. % of 92%. This compound also displayed an Eff. % in the series on Plasmopara viticola of 93%.

As to `Cc1ccc(Cl)cc1NC(=O)N1CCC(c2nc(C3=NOC(c4ccccc4C=O)C3)cs2)CC1` (stereo not drawn) [Ex. 3, N-(5-Chloro-2-methylphenyl)-4-{4-[5-(2-formylphenyl)-4,5-dihydro-1,2-oxazol-3-yl]-1,3-thiazol-2-yl}piperidine-1-carboxamide], the chromatographic logP in series [1] stood at 3.35. The Eff. % in the series with Phytophthora infestans and with Plasmopara viticola was 100% each time.

Turning to `C#CCOc1ccccc1C1CC(c2csc(C3CCN(C(=O)Cn4nc(C(F)(F)F)cc4C)CC3)n2)=NO1` (stereo not drawn) [Ex. 13], in series [1], the “Log P [a]” value was 3.47[a]; and the “Log P [b]” value is 3.37[b]. The same compound registered an Eff. % with Phytophthora infestans of 89%. The Eff. % in the series with Plasmopara viticola worked out at 100%.

`Cc1cc(C(F)(F)F)nn1CC(=O)N1CCC(c2nc(C3=NOC(c4ccccc4CS(C)(=O)=O)C3)cs2)CC1` (racemic) [Ex. 34]: in series [1], the “Log P [a]” value was 2.6[a]. In addition, the values for the Eff. % in the series with Phytophthora infestans and in the series on Plasmopara viticola were 100% and 84%, respectively.

Take `C=CCOc1cccc(F)c1C1CC(c2csc(C3CCN(C(=O)Nc4cc(C)ccc4C)CC3)n2)=NO1` (stereo not drawn) [Ex. 25]: in series [1], the “Log P [a]” value was 3.64[a];. For the same compound, in series [1], the “Log P [b]” value was 3.62[b]. The Eff. % in the series on Phytophthora infestans and in the series with Plasmopara viticola was 100% throughout.

In the case of `C#CCOc1cccc(F)c1C1(C)CC(c2csc(C3CCN(C(=O)Cn4nc(C)cc4C(F)F)CC3)n2)=NO1` (racemic) [Ex. 37], in series [1], the “Log P [a]” value was 3.11[a]; and the “Log P [b]” value was 3.12[b];. Moreover, the Eff. % in the series on Phytophthora infestans stood at 94%. Besides, in the series with Plasmopara viticola, the Eff. % is given as 96%.

Take `Cc1cc(C(F)(F)F)nn1CC(=O)N1CCC(c2nc(C3=NOC(c4c(Cl)cccc4OC(=O)C4CC4)C3)cs2)CC1` (racemic) [Ex. 48]: in series [1], the “Log P [a]” value was 3.73[a]; and the “Log P [b]” value is 3.64[b]. Moreover, the Eff. % in the series with Phytophthora infestans stood at 70%. This compound had an Eff. % with Plasmopara viticola of 95%.

Turning to `COCCOc1cccc(F)c1C1CC(c2csc(C3CCN(C(=O)Cn4nc(C(F)(F)F)cc4C)CC3)n2)=NO1` (racemic) [Ex. 49], in series [1], the “Log P [a]” value was 3.28[a]; and the “Log P [b]” value was 3.17[b]. In the series on Phytophthora infestans, this compound came in with an Eff. % of 90%. Further, the Eff. % in the series on Plasmopara viticola is listed as 100%.

`C=CCOc1ccccc1C1CC(c2csc(C3CCN(C(=O)Cn4nc(C)cc4C(F)F)CC3)n2)=NO1` (stereo not drawn) [Ex. 18]: the “Log P [a]” value in series [1] is 3.42[a];. Further, the “Log P [b]” value in series [1] is 3.33[b]. The figures for the Eff. % in the series with Phytophthora infestans and with Plasmopara viticola were 100% and 95%, respectively.

Turning to `C=CCOc1cccc(Cl)c1C1CC(c2csc(C3CCN(C(=O)Nc4cc(Cl)ccc4C)CC3)n2)=NO1` (racemic) [Ex. 39], in series [1], the “Log P [a]” value was 4.21[a]; and the “Log P [b]” value was 4.11[b]. This compound also displayed an Eff. % in the series on Phytophthora infestans of 94%. The same compound came in with an Eff. % in the series on Plasmopara viticola of 100%.

As to `C=CCOc1cccc(Cl)c1C1CC(c2csc(C3CCN(C(=O)Nc4cc(C)ccc4C)CC3)n2)=NO1` (racemic) [Ex. 42], the “Log P [a]” value in series [1] is 3.98[a];. The “Log P [b]” value in series [1] is 3.91[b]. In addition, the Eff. % with Phytophthora infestans was determined as 94%; in the series on Plasmopara viticola, 96%.

`C=CCOc1cccc(Cl)c1C1CC(c2csc(C3CCN(C(=O)Cn4nc(C(F)(F)F)cc4C)CC3)n2)=NO1` (racemic) [Ex. 50]: the “Log P [a]” value in series [1] is 3.94[a];. Besides, the “Log P [b]” value in series [1] is 3.83[b]. Moreover, the Eff. % in the series on Phytophthora infestans stood at 70%; with Plasmopara viticola, 100%.

As for `Cc1cc(C(F)(F)F)nn1CC(=O)N1CCC(c2nc(C3=NOC(c4ccccc4COCC(F)(F)F)C3)cs2)CC1` (racemic) [Ex. 43], the “Log P [a]” value in series [1] was 3.77[a]. Moreover, the Eff. % came out at 97% in the series with Phytophthora infestans and 83% with Plasmopara viticola.

As for `C=CCOc1ccccc1C1CC(c2csc(C3CCN(C(=O)Nc4cc(C)ccc4C)CC3)n2)=NO1` (racemic) [Ex. 46], in series [1], the “Log P [a]” value was 3.91[a];. Moreover, the “Log P [b]” value in series [1] is 3.81[b]. The figures for the Eff. % in the series with Phytophthora infestans and in the series on Plasmopara viticola were 100% and 98%, respectively.

For the compound `C#CCOc1ccccc1C1CC(c2csc(C3CCN(C(=O)Nc4cc(C)ccc4C)CC3)n2)=NO1` (racemic) [Ex. 45], the “Log P [a]” value in series [1] is 3.43[a];. The “Log P [b]” value in series [1] was 3.41[b]. In addition, the Eff. % stood at 100% in the series on Phytophthora infestans and 96% in the series on Plasmopara viticola.

As to `CS(=O)(=O)Nc1ccccc1C1CC(c2csc(C3CCN(C(=O)Nc4cc(C(F)F)ccc4C(F)F)CC3)n2)=NO1` (stereo not drawn) [Ex. 6, N-[2,5-Bis(difluoromethyl)phenyl]-4-[4-(5-{2-[(methylsulphonyl)amino]phenyl}-4,5-dihydro-1,2-oxazol-3-yl)-1,3-thiazol-2-yl]piperidine-1-carboxamide], the chromatographic logP in series [1] was 2.72. Further, the values for the Eff. % with Phytophthora infestans and in the series with Plasmopara viticola were 95% and 98%, respectively.

For the compound `C=CCOc1c(F)cccc1C1CC(c2csc(C3CCN(C(=O)Cn4nc(C(F)(F)F)cc4C)CC3)n2)=NO1` (racemic) [Ex. 52], in series [1], the “Log P [a]” value was 3.97[a]; and the “Log P [b]” value is 3.84[b]. Further, the Eff. % in the series on Phytophthora infestans was 97%. The compound also displayed an Eff. % with Plasmopara viticola of 98%.

With `C=CCOc1cccc(C2CC(c3csc(C4CCN(C(=O)Cn5nc(C(F)(F)F)cc5C)CC4)n3)=NO2)c1` (racemic) [Ex. 41], in series [1], the “Log P [a]” value was 3.62[a]; and the “Log P [b]” value was 3.68[b];. The Eff. % with Phytophthora infestans was 98% and 97%. For the same compound, in the series with Plasmopara viticola, the Eff. % is 78%.

Consider `Cc1cc(C(F)(F)F)nn1CC(=O)N1CCC(c2nc(C3=NOC(c4ccccc4OC(=O)C4CC4)C3)cs2)CC1` (racemic) [Ex. 56], for which the “Log P [a]” value in series [1] was 3.52[a];. Besides, in series [1], the “Log P [b]” value was 3.41[b]. Further, the Eff. % in the series on Phytophthora infestans was 89%; in the series on Plasmopara viticola, 98%.

Consider `C#CCOc1c(F)cccc1C1CC(c2csc(C3CCN(C(=O)Cn4nc(C(F)(F)F)cc4C)CC3)n2)=NO1` (stereo not drawn) [Ex. 9], for which the Eff. % with Phytophthora infestans is 94%; in the series on Plasmopara viticola, 100%.

On to `C=CCOc1ccc(F)c(C2CC(c3csc(C4CCN(C(=O)Cn5nc(C(F)(F)F)cc5C)CC4)n3)=NO2)c1F` (stereo not drawn) [Ex. 19], for which the Eff. % in the series on Phytophthora infestans and in the series on Plasmopara viticola was 98% throughout.
